Test results reported in article PMC8843100, “Development of newly synthesised quinazolinone-based CDK2 inhibitors with potent efficacy against melanoma” (Journal of Enzyme Inhibition and Medicinal Chemistry, 2022).

What was measured:
UACC-62 = experiment: NCI-60 single dose screen, sulforhodamine B; assay type: cell-based, human; conditions: Melanoma UACC-62; single dose 10^−5 M
Experimental: (§1) In this research, all of the newly synthesised quinazolinones were subjected to in vitro anticancer screening by the National Cancer Institute (USA) against 60 different human cell lines including leukaemia, non-small cell lung cancer, colon cancer, CNS cancer, melanoma, ovarian cancer, renal cancer, prostate cancer, and breast cancer. The tested compounds were evaluated at a single dose (10^−5 M). […] Regarding the benzenesulfonamide counterparts, the introduction of an electron-withdrawing group on the benzenesulfonamide moiety increased the inhibitory activity on the glioblastoma cell line SNB-75 as depicted by the chloro derivative 5c (GI% = 63.09) which was higher than that of the unsubstituted derivative 5a (GI% = 40.06) and the methyl derivative 5b (GI% = 33.03).
(§2) 1. Cytotoxicity screening against a panel of 60 human tumor cell lines
(§3) All the compounds were selected for NCI-60 Human Tumor Cell Lines Screen by the Developmental Therapeutics Program (DTP) at the National Cancer Institute (NCI), Maryland, USA. The operation of this screen utilizes 60 different human tumor cell lines, representing leukemia, non-small-cell lung cancer, colon cancer, CNS cancer, melanoma, ovarian cancer, renal cancer, prostate cancer and breas t cancer.
(§4) The compounds were supplied as dry powder and a single concentration is tested in all 60 cell lines at a single dose of 10 µM solution in dimethyl sulfoxide (DMSO) using Sulforhodamine B assay. Briefly, cells are seeded in 96 well plates at an appropriate density and incubated for 1 day. After 1 day, some of the plates are processed to determine the density time zero. To the remaining plates, compounds are added at 10 µM concentration. Plates are incubated a further 2 days, then fixed and staine d with sulphorhodamine B. Growth inhibition is calculated relative to cells without drug treatment and the time zero control. The use of a time zero control allows the determination of cell kill as well as net growth inhibition. […]

NCI-H322M = experiment: NCI-60 single dose screen, sulforhodamine B; assay type: cell-based, human; conditions: Non-small cell lung cancer NCI-H322M; single dose 10^−5 M
Experimental: as §1, §2, §3, §4

K-562 = experiment: NCI-60 single dose screen, sulforhodamine B; assay type: cell-based, human; conditions: Leukaemia K-562; single dose 10^−5 M
Experimental: as §1, §2, §3, §4

COLO 205 = experiment: NCI-60 single dose screen, sulforhodamine B; assay type: cell-based, human; conditions: Colon cancer COLO 205; single dose 10^−5 M
Experimental: as §1, §2, §3, §4

KM12 = experiment: NCI-60 single dose screen, sulforhodamine B; assay type: cell-based, human; conditions: Colon cancer KM12; single dose 10^−5 M
Experimental: as §1, §2, §3, §4

DU-145 = experiment: NCI-60 single dose screen, sulforhodamine B; assay type: cell-based, human; conditions: Prostate cancer DU-145; single dose 10^−5 M
Experimental: as §1, §2, §3, §4

OVCAR-3 = experiment: NCI-60 single dose screen, sulforhodamine B; assay type: cell-based, human; conditions: Ovarian cancer OVCAR-3; single dose 10^−5 M
Experimental: as §1, §2, §3, §4

NCI-H460 = experiment: NCI-60 single dose screen, sulforhodamine B; assay type: cell-based, human; conditions: Non-small cell lung cancer NCI-H460; single dose 10^−5 M
Experimental: as §1, §2, §3, §4

NCI-H522 = experiment: NCI-60 single dose screen, sulforhodamine B; assay type: cell-based, human; conditions: Non-small cell lung cancer NCI-H522; single dose 10^−5 M
Experimental: as §1, §2, §3, §4

OVCAR-5 = experiment: NCI-60 single dose screen, sulforhodamine B; assay type: cell-based, human; conditions: Ovarian cancer OVCAR-5; single dose 10^−5 M
Experimental: as §1, §2, §3, §4

NCI-H226 = experiment: NCI-60 single dose screen, sulforhodamine B; assay type: cell-based, human; conditions: Non-small cell lung cancer NCI-H226; single dose 10^−5 M
Experimental: as §1, §2, §3, §4

UO-31 = experiment: NCI-60 single dose screen, sulforhodamine B; assay type: cell-based, human; conditions: Renal cancer UO-31; single dose 10^−5 M
Experimental: as §1, §2, §3, §4

HS 578T = experiment: NCI-60 single dose screen, sulforhodamine B; assay type: cell-based, human; conditions: Breast cancer HS 578T; single dose 10^−5 M
Experimental: as §1, §2, §3, §4

HOP-62 = experiment: NCI-60 single dose screen, sulforhodamine B; assay type: cell-based, human; conditions: Non-small cell lung cancer HOP-62; single dose 10^−5 M
Experimental: as §1, §2, §3, §4

TK-10 = experiment: NCI-60 single dose screen, sulforhodamine B; assay type: cell-based, human; conditions: Renal cancer TK-10; single dose 10^−5 M
Experimental: as §1, §2, §3, §4

U251 = experiment: NCI-60 single dose screen, sulforhodamine B; assay type: cell-based, human; conditions: CNS cancer U251; single dose 10^−5 M
Experimental: as §1, §2, §3, §4

MDA-MB-231/ATCC = experiment: NCI-60 single dose screen, sulforhodamine B; assay type: cell-based, human; conditions: Breast cancer MDA-MB-231/ATCC; single dose 10^−5 M
Experimental: as §1, §2, §3, §4

SR = experiment: NCI-60 single dose screen, sulforhodamine B; assay type: cell-based, human; conditions: Leukaemia SR; single dose 10^−5 M
Experimental: as §1, §2, §3, §4

EKVX = experiment: NCI-60 single dose screen, sulforhodamine B; assay type: cell-based, human; conditions: Non-small cell lung cancer EKVX; single dose 10^−5 M
Experimental: as §1, §2, §3, §4

A498 = experiment: NCI-60 single dose screen, sulforhodamine B; assay type: cell-based, human; conditions: Renal cancer A498; single dose 10^−5 M
Experimental: as §1, §2, §3, §4

UACC-257 = experiment: NCI-60 single dose screen, sulforhodamine B; assay type: cell-based, human; conditions: Melanoma UACC-257; single dose 10^−5 M
Experimental: as §1, §2, §3, §4

SNB-19 = experiment: NCI-60 single dose screen, sulforhodamine B; assay type: cell-based, human; conditions: CNS cancer SNB-19; single dose 10^−5 M
Experimental: as §1, §2, §3, §4

HCT-116 = experiment: NCI-60 single dose screen, sulforhodamine B; assay type: cell-based, human; conditions: Colon cancer HCT-116; single dose 10^−5 M
Experimental: as §1, §2, §3, §4

LOX IMVI = experiment: NCI-60 single dose screen, sulforhodamine B; assay type: cell-based, human; conditions: Melanoma LOX IMVI; single dose 10^−5 M
Experimental: as §1, §2, §3, §4

SF-539 = experiment: NCI-60 single dose screen, sulforhodamine B; assay type: cell-based, human; conditions: CNS cancer SF-539; single dose 10^−5 M
Experimental: as §1, §2, §3, §4

SNB-75 = experiment: NCI-60 single dose screen, sulforhodamine B; assay type: cell-based, human; conditions: CNS cancer SNB-75; single dose 10^−5 M
Experimental: as §1, §2, §3, §4

SW-620 = experiment: NCI-60 single dose screen, sulforhodamine B; assay type: cell-based, human; conditions: Colon cancer SW-620; single dose 10^−5 M
Experimental: as §1, §2, §3, §4

BT-549 = experiment: NCI-60 single dose screen, sulforhodamine B; assay type: cell-based, human; conditions: Breast cancer BT-549; single dose 10^−5 M
Experimental: as §1, §2, §3, §4

MOLT-4 = experiment: NCI-60 single dose screen, sulforhodamine B; assay type: cell-based, human; conditions: Leukaemia MOLT-4; single dose 10^−5 M
Experimental: as §1, §2, §3, §4

HT29 = experiment: NCI-60 single dose screen, sulforhodamine B; assay type: cell-based, human; conditions: Colon cancer HT29; single dose 10^−5 M
Experimental: as §1, §2, §3, §4

SK-MEL-28 = experiment: NCI-60 single dose screen, sulforhodamine B; assay type: cell-based, human; conditions: Melanoma SK-MEL-28; single dose 10^−5 M
Experimental: as §1, §2, §3, §4

| SMILES | melting point [°C] | GI% at 10^−5 M (UACC-62) | GI% at 10^−5 M (NCI-H322M) | GI% at 10^−5 M (K-562) | GI% at 10^−5 M (COLO 205) | GI% at 10^−5 M (KM12) | GI% at 10^−5 M (DU-145) | GI% at 10^−5 M (OVCAR-3) | GI% at 10^−5 M (NCI-H460) | GI% at 10^−5 M (NCI-H522) | GI% at 10^−5 M (OVCAR-5) | GI% at 10^−5 M (NCI-H226) | GI% at 10^−5 M (UO-31) [%] | GI% at 10^−5 M (HS 578T) | GI% at 10^−5 M (HOP-62) | GI% at 10^−5 M (TK-10) | GI% at 10^−5 M (U251) | GI% at 10^−5 M (MDA-MB-231/ATCC) [%] | GI% at 10^−5 M (SR) | GI% at 10^−5 M (EKVX) | further results |
| --- | --- | --- | --- | --- | --- | --- | --- | --- | --- | --- | --- | --- | --- | --- | --- | --- | --- | --- | --- | --- | --- |
| O=C(CN1CCN(c2ccccc2)CC1)Nn1c(COc2ccccc2)nc2ccccc2c1=O [Compound 8b, N-(4-oxo-2-(phenoxymethyl)quinazolin-3(4H)-yl)-2–(4-phenylpiperazin-1-yl)acetamid] | 115 to 117 | – (– means GI < 10%) | – (– means GI < 10%) | – (– means GI < 10%) | – (– means GI < 10%) | – (– means GI < 10%) | – (– means GI < 10%) | – (– means GI < 10%) | – (– means GI < 10%) | 11.45% | – (– means GI < 10%) | – (– means GI < 10%) | 20.18 | 10.4% | – (– means GI < 10%) | – (– means GI < 10%) | – (– means GI < 10%) | 10.38 | – (– means GI < 10%) | – (– means GI < 10%) | GI% at 10^−5 M (A498): – (– means GI < 10%); GI% at 10^−5 M (UACC-257): – (– means GI < 10%); GI% at 10^−5 M (SNB-19): – (– means GI < 10%); GI% at 10^−5 M (HCT-116): – (– means GI < 10%); GI% at 10^−5 M (LOX IMVI): – (– means GI < 10%); GI% at 10^−5 M (SF-539): – (– means GI < 10%); GI% at 10^−5 M (SNB-75): – (– means GI < 10%); GI% at 10^−5 M (SW-620): – (– means GI < 10%); GI% at 10^−5 M (BT-549): – (– means GI < 10%); GI% at 10^−5 M (MOLT-4): – (– means GI < 10%); GI% at 10^−5 M (HT29): – (– means GI < 10%); GI% at 10^−5 M (SK-MEL-28): – (– means GI < 10%) |
| Cc1ccc(S(=O)(=O)Nn2c(COc3ccccc3)nc3ccccc3c2=O)cc1 [Compound 5b, 4-methyl-N-(4-oxo-2-(phenoxymethyl)quinazolin-3(4H)-yl)benzenesulfonamide] | 140 to 142 | – (– means GI < 10%) | – (– means GI < 10%) | – (– means GI < 10%) | – (– means GI < 10%) | – (– means GI < 10%) | 15.73% | – (– means GI < 10%) | – (– means GI < 10%) | – (– means GI < 10%) | – (– means GI < 10%) | – (– means GI < 10%) | 10.74 | – (– means GI < 10%) | 11.16% | 23.64% | – (– means GI < 10%) | 10.94 | – (– means GI < 10%) | 13.18% | GI% at 10^−5 M (A498): – (– means GI < 10%); GI% at 10^−5 M (UACC-257): – (– means GI < 10%); GI% at 10^−5 M (SNB-19): – (– means GI < 10%); GI% at 10^−5 M (HCT-116): – (– means GI < 10%); GI% at 10^−5 M (LOX IMVI): – (– means GI < 10%); GI% at 10^−5 M (SF-539): – (– means GI < 10%); GI% at 10^−5 M (SNB-75): 33.03%; GI% at 10^−5 M (SW-620): – (– means GI < 10%); GI% at 10^−5 M (BT-549): – (– means GI < 10%); GI% at 10^−5 M (MOLT-4): – (– means GI < 10%); GI% at 10^−5 M (HT29): – (– means GI < 10%); GI% at 10^−5 M (SK-MEL-28): – (– means GI < 10%) |
